Test results published in patent publication US8685976B2, “Cell adhesion promoting agent and method of promoting cell adhesion” (Kyoto University, priority 2008, dated 2014).

Experiments:
[1] = tested on: focal adhesion kinase (FAK); test: Western blotting, FAK activation; assay type: cell-based, human; details: Jurkat
Method: Jurkat cells were treated with adhesamine (6 μM) in a serum-poor culture medium (0.1% FBS) for the indicated periods of time. The treated cell lysates were Western blotted with antibodies against FAK phospho-tyrosine^397 (pFAK), FAK, ERK1/2 phospho-threonine^202/tyrosine^204 (pERK) or ERK. In (B), Jurkat cells were incubated for 5 hours with varied concentrations of adhesamine or poly-L-lysine. The cell lysates were Western blotted with antibodies against FAK phospho-tyrosine^397 or FAK. […] The concentration of adhesamine (1) was 6 μM.
Jurkat cells were maintained in an RPMI medium containing 10% FBS. 5-6 million Jurkat cells were dispensed to a well of a 6-well plate in a final volume of 2 mL, and then incubated at 37° C. for 0-5 hours in the presence of adhesamine or poly-L-lysine. Non-adherent cells were removed and pelleted, and the remaining adherent cells were lysed in a 125 mM Tris-HCl buffer (pH 6.8) containing 4% SDS, 10% glycerol, 0.006% bromophenol blue, and 1.8% β-mercaptoethanol. The adherent cell homogenate was combined with pelleted nonadherent cells from the same well, and the combined sample was boiled for 5 minutes. The samples were separated by SDS-PAGE and electroblotted onto a nitrocellulose membrane. The membranes were blocked in 1% BSA and incubated with primary antibody, and then with horseradish peroxidase-conjugated secondary antibody. The blots were developed using the enhanced chemiluminescence technique.

Jurkat cells [2] = test: Cell adhesion assay by coating; assay type: cell-based, human; details: 50 μg/well
Method: The surface area per well is 0.3 cm^2.
The assay samples (adhesamine (1), Type I collagen, poly-L-lysine hydrochloride, poly-L-ornithine hydrobromide, and fibronectin) were adjusted in concentration by being diluted with 10 mM PBS containing 1% DMSO. […] Thereafter, the wells were washed with Milli-Q water twice. 100 μL of Jurkat cell suspension (1×10^6 cells/mL) was added to each of coated wells. After 5-hour incubation at 37° C., non-adhered cells were removed by washing each well with PBS twice, and attached cells were counted with a Neubauer counting chamber (Digital Bio).

Jurkat cells [3] = test: Cell detachment assay; assay type: cell-based, human; details: 24 hour after washing (removal of adhesamine)
Method: FIG. 2 is a graph illustrating a reversible activity of adhesamine (1). The attached cells were counted at the indicated time points after removal of adhesamine (1). In order to calculate adhesion rates, the number of cells before washing was assigned a value of 100%. Each assay was conducted in triplicate, and the means and the standard deviations were calculated for a minimum of three independent experiments.
1 μL DMSO solution of adhesamine (1) (6 mM) was dispensed to each well on a 96-well plate. Jurkat cells were suspended in the growth medium, and 100 μL of cell suspension was added to each well at a density of 1×10^6 cells/mL. After 5-hour incubation at 37° C., the medium was aspirated, and the plates were washed twice with PBS. 100 μL of fresh medium was added to each well. After further 4, 8, 14 and 24-hour incubation at 37° C., non-adhered cells were removed by washing with PBS twice, and the attached cells were counted with a Neubauer counting chamber. To calculate adhesion rates, the cell numbers before washing were assigned a value of 100%. Each assay was conducted in triplicate, and the means and standard derivations were calculated for a minimum of three independent experiments.

CHO 745 cells = test: Cell adhesion assay, CHO 745; assay type: cell-based; details: CHO 745, 6 μM, vs parental CHO-K1
Method: (A) and (B) show CHO-K1 (wild-type) cells incubated with 1% (v/v) DMSO (A) or 6 μM adhesamine (B). (C) and (D) show CHO 677 incubated with 1% (v/v) DMSO (A) or 6 μM adhesamine (B). […] Cells were seeded onto adhesamine-added or fibronectin-coated plastic wells. The concentrations of adhesamine and fibronectin were 6 μM and 5 μg/mL, respectively. Adhered cells were counted at 5 hours after seeding. Each point represents average±SD.
For CHO wild-type and CHO mutant cell lines, 100 μL of trypsinized cell suspension in a culture medium was added to each well at a density of 2×10^5 cells/mL. After 5-hour incubation at 37° C., non-adhered cells were removed by washing each well with PBS twice, and the attached cells were counted with a Neubauer counting chamber (Digital Bio). To calculate adhesion rates, the cell numbers before washing were assigned a value of 100%. Each assay was conducted in triplicate, and the means and standard derivations were calculated for a minimum of three independent experiments.

## CSc1nc(Cl)c(C=O)c(N2CC[N+]3(CC2)CC[N+]2(CCN(c4nc(SC)nc(Cl)c4C=O)CC2)CC3)n1 [adhesamine]
[1]; 6 μM, serum-poor medium
  time after stimulation at which FAK phosphorylation was demonstrated: 5 h
[1]; 5 hours
  concentration sufficient to phosphorylate FAK: 5 µg/mL
Jurkat cells [2]
  cell attachment when applied as coating, compared with coating reagents: greater effect than fibronectin, poly-L-lysine, and poly-L-ornithine
Jurkat cells [3]
  Jurkat cells released from the surface of a culture plate: 93%
CHO 745 cells
  response of cell adhesion to adhesamine: less responsive
